± gives the expanded uncertainty stated by the source.
Experiment: xn = mol fraction of the nth substance listed
Settings: Liquid, Vibrating tube method, x1 = 1

CCO [ethanol] + CC1CCCCC1
mass density (283.15 K, 100 kPa): 798 ± 0.2 kg/m3 | mass density (283.15 K, 5000 kPa): 802 ± 0.2 kg/m3 | mass density (283.15 K, 10000 kPa): 805.9 ± 0.2 kg/m3 | mass density (283.15 K, 15000 kPa): 809.5 ± 0.3 kg/m3 | mass density (283.15 K, 20000 kPa): 813 ± 0.3 kg/m3 | mass density (283.15 K, 25000 kPa): 816.4 ± 0.4 kg/m3 | mass density (283.15 K, 30000 kPa): 819.7 ± 0.4 kg/m3 | mass density (283.15 K, 35000 kPa): 822.8 ± 0.4 kg/m3 | mass density (283.15 K, 40000 kPa): 825.9 ± 0.5 kg/m3 | mass density (283.15 K, 45000 kPa): 828.8 ± 0.5 kg/m3 | mass density (293.15 K, 100 kPa): 789.5 ± 0.2 kg/m3 | mass density (293.15 K, 5000 kPa): 793.7 ± 0.2 kg/m3 | mass density (293.15 K, 10000 kPa): 797.8 ± 0.3 kg/m3 | mass density (293.15 K, 15000 kPa): 801.6 ± 0.3 kg/m3 | mass density (293.15 K, 20000 kPa): 805.3 ± 0.3 kg/m3 | mass density (293.15 K, 25000 kPa): 808.9 ± 0.4 kg/m3 | mass density (293.15 K, 30000 kPa): 812.3 ± 0.4 kg/m3 | mass density (293.15 K, 35000 kPa): 815.6 ± 0.5 kg/m3 | mass density (293.15 K, 40000 kPa): 818.7 ± 0.5 kg/m3 | mass density (293.15 K, 45000 kPa): 821.8 ± 0.5 kg/m3 | mass density (303.15 K, 100 kPa): 780.9 ± 0.2 kg/m3 | mass density (303.15 K, 5000 kPa): 785.3 ± 0.2 kg/m3 | mass density (303.15 K, 10000 kPa): 789.6 ± 0.3 kg/m3 | mass density (303.15 K, 15000 kPa): 793.7 ± 0.3 kg/m3 | mass density (303.15 K, 20000 kPa): 797.5 ± 0.4 kg/m3 | mass density (303.15 K, 25000 kPa): 801.3 ± 0.4 kg/m3 | mass density (303.15 K, 30000 kPa): 804.8 ± 0.4 kg/m3 | mass density (303.15 K, 35000 kPa): 808.2 ± 0.5 kg/m3 | mass density (303.15 K, 40000 kPa): 811.5 ± 0.5 kg/m3 | mass density (303.15 K, 45000 kPa): 814.7 ± 0.6 kg/m3 | mass density (313.15 K, 100 kPa): 772.1 ± 0.2 kg/m3 | mass density (313.15 K, 5000 kPa): 776.8 ± 0.2 kg/m3 | mass density (313.15 K, 10000 kPa): 781.3 ± 0.3 kg/m3 | mass density (313.15 K, 15000 kPa): 785.6 ± 0.3 kg/m3 | mass density (313.15 K, 20000 kPa): 789.6 ± 0.4 kg/m3 | mass density (313.15 K, 25000 kPa): 793.5 ± 0.4 kg/m3 | mass density (313.15 K, 30000 kPa): 797.2 ± 0.5 kg/m3 | mass density (313.15 K, 35000 kPa): 800.8 ± 0.5 kg/m3 | mass density (313.15 K, 40000 kPa): 804.2 ± 0.5 kg/m3 | mass density (313.15 K, 45000 kPa): 807.6 ± 0.6 kg/m3 | mass density (323.15 K, 100 kPa): 763.3 ± 0.2 kg/m3 | mass density (323.15 K, 5000 kPa): 768.3 ± 0.2 kg/m3 | mass density (323.15 K, 10000 kPa): 773 ± 0.3 kg/m3 | mass density (323.15 K, 15000 kPa): 777.6 ± 0.3 kg/m3 | mass density (323.15 K, 20000 kPa): 781.8 ± 0.4 kg/m3 | mass density (323.15 K, 25000 kPa): 785.9 ± 0.4 kg/m3 | mass density (323.15 K, 30000 kPa): 789.7 ± 0.5 kg/m3 | mass density (323.15 K, 35000 kPa): 793.5 ± 0.5 kg/m3 | mass density (323.15 K, 40000 kPa): 797.1 ± 0.6 kg/m3 | mass density (323.15 K, 45000 kPa): 800.5 ± 0.6 kg/m3 | mass density (333.15 K, 100 kPa): 754 ± 0.2 kg/m3 | mass density (333.15 K, 5000 kPa): 759.3 ± 0.2 kg/m3 | mass density (333.15 K, 10000 kPa): 764.3 ± 0.3 kg/m3 | mass density (333.15 K, 15000 kPa): 769.1 ± 0.3 kg/m3 | mass density (333.15 K, 20000 kPa): 773.6 ± 0.4 kg/m3 | mass density (333.15 K, 25000 kPa): 777.8 ± 0.4 kg/m3 | mass density (333.15 K, 30000 kPa): 781.9 ± 0.5 kg/m3 | mass density (333.15 K, 35000 kPa): 785.8 ± 0.5 kg/m3 | mass density (333.15 K, 40000 kPa): 789.5 ± 0.6 kg/m3 | mass density (333.15 K, 45000 kPa): 793.1 ± 0.6 kg/m3 | mass density (343.15 K, 100 kPa): 744.5 ± 0.2 kg/m3 | mass density (343.15 K, 5000 kPa): 750.1 ± 0.2 kg/m3 | mass density (343.15 K, 10000 kPa): 755.5 ± 0.3 kg/m3 | mass density (343.15 K, 15000 kPa): 760.5 ± 0.3 kg/m3 | mass density (343.15 K, 20000 kPa): 765.3 ± 0.4 kg/m3 | mass density (343.15 K, 25000 kPa): 769.8 ± 0.5 kg/m3 | mass density (343.15 K, 30000 kPa): 774 ± 0.5 kg/m3 | mass density (343.15 K, 35000 kPa): 778.1 ± 0.5 kg/m3 | mass density (343.15 K, 40000 kPa): 782 ± 0.6 kg/m3 | mass density (343.15 K, 45000 kPa): 785.7 ± 0.6 kg/m3 | mass density (353.15 K, 5000 kPa): 740.6 ± 0.2 kg/m3 | mass density (353.15 K, 10000 kPa): 746.4 ± 0.3 kg/m3 | mass density (353.15 K, 15000 kPa): 751.7 ± 0.4 kg/m3 | mass density (353.15 K, 20000 kPa): 756.7 ± 0.4 kg/m3 | mass density (353.15 K, 25000 kPa): 761.5 ± 0.5 kg/m3 | mass density (353.15 K, 30000 kPa): 766 ± 0.5 kg/m3 | mass density (353.15 K, 35000 kPa): 770.2 ± 0.6 kg/m3 | mass density (353.15 K, 40000 kPa): 774.3 ± 0.6 kg/m3 | mass density (353.15 K, 45000 kPa): 778.2 ± 0.7 kg/m3
